Read-outs that look alike come from different tables or passages of the source. Starred links: 1 amine or outer side, 2 acyl side, 3 side chain; linkers in the order of their positions; H or OH if unused. Positions of bridges follow the written chain, without caps; N, C: chain ends. Non-standard residues stand in square brackets, D forms with d. Residues, ends and D or L forms follow the SMILES beside them. No end group written: not given here. *: point of attachment. dProlinol(O-CH2CO) = O=C(COC[C@H]1CCCN1[*:1])[*:2]; N(2-Aminoethyl)Gly = O=C(CN(CCN[*:3])[*:1])[*:2]; Nle = CCCC[C@H](N)C(=O)O; Ms = CS(=O)(=O)*
Test system: H929 myeloma cells
Assay type: cell-based
Conditions: for bioactivity of cyclic III peptide analogs, in words: SAR discussion of Table 8; for change in activity relative to the inverso peptide L-cINTEGRIN INTERACTION INHIBITORS: alanine scan and analogs, Table 4 legend; for activity relative to linear parent peptide (linear D-HYD1): in words
Method: H929 cells were treated for 24 hours with varying concentrations of peptide. Cell death was measured by Topro-3 staining and FACS analysis. The IC50 values were obtained from linear regression analysis and an average value was obtained from 3 independent experiments.
Table 4 legend: Structure activity relationship in H929 myeloma cells of cyclic INTEGRIN INTERACTION INHIBITORS derivatives. The minimal bioactive core sequence of INTEGRIN INTERACTION INHIBITORS WSVVM (SEQ ID NO:85) was cyclized using 2 novel reduced amide bond beta turn promoters and KLKLK (SEQ ID NO:27) as the non-recognition sequence. H929 cells were treated with varying concentrations of the indicated peptide for 24 h. Cell viability was determined using Topro-3 staining and FACS analysis after drug treatment. IC50 values were generated from linear regressions generated from the dose response curves (n=mean of 3 independent experiments).
Using combinatorial peptide libraries and a functional binding assay, several peptides have been identified that inhibited α2β1 and α6β1 integrin mediated adhesion of prostate cancer cells to fibronectin, laminin and collagen IV.^1 They identified an all D-amino acid containing peptide referred as HYD1 ([…]) (SEQ ID NO:278) that blocks binding of epithelial prostate carcinoma cells to extracellular matrix components.^2,3 Hazlehurst and co-workers have truncated the N- and C-termini and alanine scan studies identified MVISW (SEQ ID NO:279) as the likely core region of linear D-HYD1 required for biological activity. […] The pentapeptide (KLKLK) (SEQ ID NO:27) was selected as the non-recognition strand to improve the solubility. N- to C-terminus cyclization of linear peptides was done to restrict the number of conformations available to the linear peptide which increases the affinity of the cyclized peptide for its target when the constraint stabilizes the bound conformation of the peptide. We synthesized cyclic D-HYD1 using a novel methylsulfonamide aminoethyl glycine linker T1 that connects two anti-parallel strands. […] The inverso- (peptide 2, Table 4) and partially modified retro-inverso (PMRI) (peptide 10) pentapeptide sequences of the recognition strand of cyclic III (Integrin Interaction Inhibitors also known as cyclic L-HYD1) peptide analogs were subsequently investigated for their potential to block beta integrin mediated cell adhesion. The retro-inverso design of biologically active peptides is a well-known strategy to design all D-amino acid peptides from potentially bioactive all L-peptide sequences with increased stability^4-7.
A colony forming assay was used to compare induced cell death in H929 multiple myeloma cells. Cells were treated with integrin interaction inhibitors, shown in FIG. 5 and Table 4, and cell death was measured following 24 hour peptide treatment by TOPRO-3 staining and FACS analysis.

[1] = cyclic III peptide analogs, Table 8, H929 cells, TOPRO 3, read-out: IC50

## CSCC[C@@H]1NC(=O)CN(S(C)(=O)=O)CCNC(=O)[C@H](CCCCN)NC(=O)[C@H](CC(C)C)NC(=O)[C@H](CCCCN)NC(=O)[C@H](CC(C)C)NC(=O)[C@H](CCCCN)NC(=O)CN(S(C)(=O)=O)CCNC(=O)[C@H](Cc2c[nH]c3ccccc23)NC(=O)[C@H](CO)NC(=O)[C@H](C(C)C)NC(=O)[C@H](C(C)C)NC1=O [III 1]
H929 cells
  fold more potent than the parent linear HYD1 peptide: 2.5 fold

## CC(C)C[C@@H]1NC(=O)[C@H](CCCCN)NC(=O)CN(S(C)(=O)=O)CCNC(=O)[C@H](C)NC(=O)[C@H](C(C)C)NC(=O)[C@H](C(C)C)NC(=O)[C@H](C)NC(=O)[C@H](Cc2c[nH]c3ccccc23)NC(=O)CN(S(C)(=O)=O)CCNC(=O)[C@H](CCCCN)NC(=O)[C@H](CC(C)C)NC(=O)[C@H](CCCCN)NC1=O [Peptide 12, KLKLKT1WAVVAT1]
24 h
  IC50: 69 µM

## CSCC[C@@H]1NC(=O)CN(S(C)(=O)=O)CCNC(=O)[C@H](CCCCN)NC(=O)[C@H](CC(C)C)NC(=O)[C@H](CCCCN)NC(=O)[C@H](CC(C)C)NC(=O)[C@H](CCCCN)NC(=O)CN(S(C)(=O)=O)CCNC(=O)[C@H](Cc2c[nH]c3ccccc23)NC(=O)[C@H](C)NC(=O)[C@H](C(C)C)NC(=O)[C@H](C(C)C)NC1=O [Peptide 4, KLKLKT1MVVAWT1]
  bioactivity of cyclic III peptide analogs, in words: significantly improved the bioactivity

## NorLeuVVSW: cyclic compound with recognition strand NorLeuVVSW (SEQ ID NO:39), methionine replaced by nor-Leucine ([Nle]VVSW; also: cyclic compound, closure not given here)
H929 cells
  fold more potent than the parent linear HYD1 peptide: 15 fold

## CC(C)C[C@@H]1NC(=O)[C@H](CCCCN)NC(=O)CN(S(C)(=O)=O)CCNC(=O)[C@H](Cc2c[nH]c3ccccc23)NC(=O)[C@H](CO)NC(=O)[C@H](C(C)C)NC(=O)[C@H](C(C)C)NC(=O)[C@H](C)NC(=O)CN(S(C)(=O)=O)CCNC(=O)[C@H](CCCCN)NC(=O)[C@H](CC(C)C)NC(=O)[C@H](CCCCN)NC1=O [III 6]
H929 cells
  change in activity relative to the inverso peptide L-cINTEGRIN INTERACTION INHIBITORS: decrease in activity

## CSCC[C@@H]1NC(=O)CN(S(C)(=O)=O)CCNC(=O)[C@H](CCCCN)NC(=O)[C@H](CC(C)C)NC(=O)[C@H](CCCCN)NC(=O)[C@H](CC(C)C)NC(=O)[C@H](CCCCN)NC(=O)CN(S(C)(=O)=O)CCNC(=O)[C@H](Cc2c[nH]c3ccccc23)NC(=O)[C@H](CO)NC(=O)[C@H](C)NC(=O)[C@H](C(C)C)NC1=O [III 4]
H929 cells
  change in activity relative to the inverso peptide L-cINTEGRIN INTERACTION INHIBITORS: decrease in activity

## NorLeuVVAW: cyclic compound combining both modifications, recognition strand NorLeuVVAW (SEQ ID NO:41) ([Nle]VVAW; also: cyclic, closure not given here)
H929 cells
  fold more potent than the parent linear HYD1 peptide: 30 fold

## CCCC[C@@H]1NC(=O)[C@H](C(C)C)NC(=O)[C@H](C(C)C)NC(=O)[C@H](C)NC(=O)[C@H](C)NC(=O)CN(S(C)(=O)=O)CCNC(=O)[C@H](CCCCN)NC(=O)[C@H](CC(C)C)NC(=O)[C@H](CCCCN)NC(=O)[C@H](CC(C)C)NC(=O)[C@H](CCCCN)NC(=O)CN(S(C)(=O)=O)CCNC1=O [Peptide 15, KLKLKT1AAVVN*T1]
24 h
  IC50: 3 µM
  bioactivity of cyclic III peptide analogs, in words: unexpected improvement in bioactivity

## CSCC[C@@H]1NC(=O)CN(S(C)(=O)=O)CCNC(=O)[C@H](CCCCN)NC(=O)[C@H](CC(C)C)NC(=O)[C@H](CCCCN)NC(=O)[C@H](CC(C)C)NC(=O)[C@H](CCCCN)NC(=O)CN(S(C)(=O)=O)CCNC(=O)[C@H](Cc2c[nH]c3ccccc23)NC(=O)[C@H](C)NC(=O)[C@H](C(C)C)NC(=O)[C@H](C(C)C)NC1=O [III 3]
H929 cells
  change in activity relative to the inverso peptide L-cINTEGRIN INTERACTION INHIBITORS: increase in activity

## CCCC[C@@H]1NC(=O)CN(S(C)(=O)=O)CCNC(=O)[C@H](CCCCN)NC(=O)[C@H](CC(C)C)NC(=O)[C@H](CCCCN)NC(=O)[C@H](CC(C)C)NC(=O)[C@H](CCCCN)NC(=O)COC[C@H]2CCCN2C(=O)[C@H](Cc2c[nH]c3ccccc23)NC(=O)[C@H](C)NC(=O)[C@H](Cc2ccccc2)NC(=O)[C@H](C(C)C)NC1=O [Peptide 26, KLKLKT1N*VFAWT3] (Ms-[N(2-Aminoethyl)Gly][Nle]VFAW[dProlinol(O-CH2CO)]KLKLK; lactam 1-C)
[1]
  IC50: 9 µM

## MVVAW: cyclic compound with recognition strand MVVAW (SEQ ID NO:35), S replaced by A (also: recognition strand of a larger cyclic compound)
H929 cells
  fold more potent than the parent linear HYD1 peptide: approximately 10 fold

## CCCC[C@@H]1NC(=O)CN(S(C)(=O)=O)CCNC(=O)[C@H](CCCCN)NC(=O)[C@H](CC(C)C)NC(=O)[C@H](CCCCN)NC(=O)[C@H](CC(C)C)NC(=O)[C@H](CCCCN)NC(=O)CN(S(C)(=O)=O)CCNC(=O)[C@H](Cc2c[nH]c3ccccc23)NC(=O)[C@H](CO)NC(=O)[C@H](C(C)C)NC(=O)[C@H](C(C)C)NC1=O [Peptide 8, KLKLKT1N*VVSWT1]
  bioactivity of cyclic III peptide analogs, in words: further increase of the peptide's bioactivity

## CCCC[C@@H]1NC(=O)CN(S(C)(=O)=O)CCNC(=O)[C@H](CCCCN)NC(=O)[C@H](CC(C)C)NC(=O)[C@H](CCCCN)NC(=O)[C@H](CC(C)C)NC(=O)[C@H](CCCCN)NC(=O)COC[C@H]2CCCN2C(=O)[C@H](Cc2c[nH]c3ccccc23)NC(=O)[C@H](C)NC(=O)[C@H](CC(C)C)NC(=O)[C@H](C(C)C)NC1=O [Peptide 24, KLKLKT1N*VLAWT3] (Ms-[N(2-Aminoethyl)Gly][Nle]VLAW[dProlinol(O-CH2CO)]KLKLK; lactam 1-C)
[1]
  IC50: 10 µM

## CCCC[C@@H]1NC(=O)[C@H](C(C)C)NC(=O)[C@H](C)NC(=O)[C@H](C)NC(=O)[C@H](Cc2c[nH]c3ccccc23)NC(=O)CN(S(C)(=O)=O)CCNC(=O)[C@H](CCCCN)NC(=O)[C@H](CC(C)C)NC(=O)[C@H](CCCCN)NC(=O)[C@H](CC(C)C)NC(=O)[C@H](CCCCN)NC(=O)CN(S(C)(=O)=O)CCNC1=O [Peptide 14, KLKLKT1WAAVN*T1]
24 h
  IC50: 41 µM

## CCCC[C@@H]1NC(=O)CN(S(C)(=O)=O)CCNC(=O)[C@H](CCCCN)NC(=O)[C@H](CC(C)C)NC(=O)[C@H](CCC(N)=O)NC(=O)[C@H](CC(C)C)NC(=O)[C@H](CCCCN)NC(=O)COC[C@H]2CCCN2C(=O)[C@H](Cc2c[nH]c3ccccc23)NC(=O)[C@H](C)NC(=O)[C@H](C(C)C)NC(=O)[C@H](C(C)C)NC1=O [Peptide 17, KLKQKT1N*VVAWT3] (Ms-[N(2-Aminoethyl)Gly][Nle]VVAW[dProlinol(O-CH2CO)]KLQLK; lactam 1-C)
24 h
  IC50: 13 µM

## CCCC[C@@H]1NC(=O)CN(S(C)(=O)=O)CCNC(=O)[C@H](CCCCN)NC(=O)[C@H](CC(C)C)NC(=O)[C@H](CCCCN)NC(=O)[C@H](CC(C)C)NC(=O)[C@H](CCCCN)NC(=O)COC[C@H]2CCCN2C(=O)[C@H](Cc2c[nH]c3ccccc23)NC(=O)[C@H](C)NC(=O)[C@H](C(C)C)NC(=O)[C@H](C(C)C)NC1=O [Peptide 16, KLKLKT1N*VVAWT3] (Ms-[N(2-Aminoethyl)Gly][Nle]VVAW[dProlinol(O-CH2CO)]KLKLK; lactam 1-C)
H929 cells, 24 hours, Topro-3 and FACS, read-out: IC50 value in H929 cells
  IC50: 1 µM

## CCCC[C@@H]1NC(=O)CN(S(C)(=O)=O)CCNC(=O)[C@H](CCC(N)=O)NC(=O)[C@H](CC(C)C)NC(=O)[C@H](CCCCN)NC(=O)[C@H](CC(C)C)NC(=O)[C@H](CCCCN)NC(=O)COC[C@H]2CCCN2C(=O)[C@H](Cc2c[nH]c3ccccc23)NC(=O)[C@H](C)NC(=O)[C@H](C(C)C)NC(=O)[C@H](C(C)C)NC1=O [Peptide 19, KLKLQT1N*VVAWT3] (Ms-[N(2-Aminoethyl)Gly][Nle]VVAW[dProlinol(O-CH2CO)]KLKLQ; lactam 1-C)
24 h
  IC50: 19 µM

## CSCC[C@@H]1NC(=O)CN(S(C)(=O)=O)CCNC(=O)[C@H](CCCCN)NC(=O)[C@H](CC(C)C)NC(=O)[C@H](CCCCN)NC(=O)[C@H](CC(C)C)NC(=O)[C@H](CCCCN)NC(=O)CN(S(C)(=O)=O)CCNC(=O)[C@H](C)NC(=O)[C@H](CO)NC(=O)[C@H](C(C)C)NC(=O)[C@H](C(C)C)NC1=O [III 2]
H929 cells
  change in activity relative to the inverso peptide L-cINTEGRIN INTERACTION INHIBITORS: decrease in activity

## CSCC[C@H]1NC(=O)CN(S(C)(=O)=O)CCNC(=O)[C@@H](CCCCN)NC(=O)[C@@H](CC(C)C)NC(=O)[C@@H](CCCCN)NC(=O)[C@@H](CC(C)C)NC(=O)[C@@H](CCCCN)NC(=O)CN(S(C)(=O)=O)CCNC(=O)[C@@H](Cc2c[nH]c3ccccc23)NC(=O)[C@@H](CO)NC(=O)[C@@H](C(C)C)NC(=O)[C@@H](C(C)C)NC1=O [cyclic D-HYD1]
H929 cells
  activity relative to linear parent peptide (linear D-HYD1): twice as active
H929 cells, listed as c-D-HYD1
  activity relative to linear parent peptide (linear D-HYD1): about twice as active

— patent publication US10059740B2, “Integrin interaction inhibitors for the treatment of cancer” (H. LEE MOFFITT CANCER CENTER AND RESEARCH INSTITUTE, INC., priority 2010, dated 2018)
